{"source": "patent US7932270B2", "about": "(Cytokinetics, Inc., priority 2006, dated 2011)", "note": "pIC50: −log10 of the molar value."}
{"biological_target": "T1, chicken gizzard smooth muscle myosin subfragment-1 chemically crosslinked to cardiac or skeletal actin (Gallus gallus, UniProt P10587)", "T1 construct": "chicken gizzard smooth muscle myosin subfragment-1; from tissue; host or cells: chicken gizzard", "T1 sequence (P02607 2-151)": "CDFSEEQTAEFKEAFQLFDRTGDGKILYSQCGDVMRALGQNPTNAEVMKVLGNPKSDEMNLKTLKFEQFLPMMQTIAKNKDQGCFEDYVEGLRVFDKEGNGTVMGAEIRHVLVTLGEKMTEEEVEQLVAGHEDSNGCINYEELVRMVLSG", "T1 sequence (P10587 84-789)": "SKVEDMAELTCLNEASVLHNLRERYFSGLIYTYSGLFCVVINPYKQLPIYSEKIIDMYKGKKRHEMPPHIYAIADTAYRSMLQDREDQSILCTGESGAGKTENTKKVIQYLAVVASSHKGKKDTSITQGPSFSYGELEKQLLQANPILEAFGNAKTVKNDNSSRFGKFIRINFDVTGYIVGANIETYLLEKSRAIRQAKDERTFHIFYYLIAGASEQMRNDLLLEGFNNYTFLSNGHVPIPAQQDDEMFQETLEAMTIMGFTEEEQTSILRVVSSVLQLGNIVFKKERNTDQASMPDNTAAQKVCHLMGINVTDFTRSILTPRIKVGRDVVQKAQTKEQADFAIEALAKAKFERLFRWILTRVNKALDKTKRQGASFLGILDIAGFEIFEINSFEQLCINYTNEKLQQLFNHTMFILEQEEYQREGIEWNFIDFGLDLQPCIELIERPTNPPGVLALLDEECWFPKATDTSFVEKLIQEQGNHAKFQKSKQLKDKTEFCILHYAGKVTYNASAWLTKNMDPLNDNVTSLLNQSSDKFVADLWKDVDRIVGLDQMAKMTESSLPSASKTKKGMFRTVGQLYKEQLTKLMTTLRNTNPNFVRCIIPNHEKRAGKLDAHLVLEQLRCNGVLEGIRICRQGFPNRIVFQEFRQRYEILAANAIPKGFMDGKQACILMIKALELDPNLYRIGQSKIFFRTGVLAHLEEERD", "experiment": "Smooth muscle myosin ATPase dose response assay (pyruvate kinase/horseradish peroxidase/pyruvate oxidase-coupled, amplex red fluorescence)", "format": "biochemical", "conditions": "read-out: IC50 Arithmetic Mean", "summary_of_the_method": "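EDC/NHS-crosslinked S1–actin, amount set per prep by rate titration. Buffer: 12 mM K-PIPES pH 7.00 (22° C), 100 mM KCl, 2 mM MgCl2, 0.15 mM ATP, 0.1 mM PEP, 2 mM KPi, 0.1 mM amplex red. Read ex 480/em 615 nm; IC50 = midpoint, 4-param Hill fit.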"}
{"molecule": "COC(=O)[C@H](C)CNC(=O)c1ccc(-c2ccccc2C#N)nc1NCCc1cccc(F)c1", "note": "[methyl (2R)-3-[(6-(2-cyanophenyl)-2-{[2-(3-fluorophenyl)ethyl]amino}(3-pyridyl))carbonylamino]-2-methylpropanoate]", "pIC50": 6.73}
{"molecule": "COC(=O)[C@@H](CN)NC(=O)c1ccc(-c2ccccc2C#N)nc1NCCc1cccc(F)c1", "note": "[methyl (2R)-3-amino-2-[(6-(2-cyanophenyl)-2-{[2-(3-fluorophenyl)ethyl]amino}(3-pyridyl))carbonylamino]propanoate]", "pIC50": 5.62}
{"molecule": "COC(=O)[C@H](C)CNC(=O)c1cc(F)c(-c2cnn(C)c2)nc1N", "note": "[methyl (2R)-3-{[2-amino-5-fluoro-6-(1-methylpyrazol-4-yl)(3-pyridyl)]carbonylamino}-2-methylpropanoate]", "pIC50": 4.07}
{"molecule": "COC(=O)[C@H](CNC(=O)c1ccc(-c2ccccc2C#N)nc1NCCc1cccc(F)c1)NC(C)=O", "note": "[methyl (2S)-2-(acetylamino)-3-[(6-(2-cyanophenyl)-2-{[2-(3-fluorophenyl)ethyl]amino}(3-pyridyl))carbonylamino]propanoate]", "pIC50": 5.79}
{"molecule": "COC(=O)[C@H](CO)NC(=O)c1ccc(-c2ccccc2C#N)nc1NCCc1cccc(F)c1", "note": "[methyl (2S)-2-[(6-(2-cyanophenyl)-2-{[2-(3-fluorophenyl)ethyl]amino}(3-pyridyl))carbonylamino]-3-hydroxypropanoate]", "pIC50": 5.38}
{"molecule": "COC(=O)[C@H](C)NC(=O)c1ccc(-c2ccccc2C#N)nc1NCCc1cccc(F)c1", "note": "[methyl (2S)-2-[(6-(2-cyanophenyl)-2-{[2-(3-fluorophenyl)ethyl]amino}(3-pyridyl))carbonylamino]propanoate]", "pIC50": 5.16}
{"molecule": "COC(=O)[C@@H](N)CNC(=O)c1ccc(-c2ccccc2C#N)nc1NCCc1cccc(F)c1", "note": "[methyl (2S)-2-amino-3-[(6-(2-cyanophenyl)-2-{[2-(3-fluorophenyl)ethyl]amino}(3-pyridyl))carbonylamino]propanoate]", "pIC50": 6.21}
{"molecule": "COC(=O)N1CCN(C)C[C@@H]1CNC(=O)c1ccc(-c2ccccc2C#N)nc1NCCc1cccc(F)c1", "note": "[methyl (2S)-2-{[(6-(2-cyanophenyl)-2-{[2-(3-fluorophenyl)ethyl]amino}(3-pyridyl))carbonylamino]methyl}-4-methylpiperazinecarboxylate]", "pIC50": 5.00}
{"molecule": "COC(=O)[C@@H](C)CNC(=O)c1cc(F)c(-c2cnn(C)c2)nc1NCCc1cccc(F)c1", "note": "[methyl (2S)-3-[(5-fluoro-2-{[2-(3-fluorophenyl)ethyl]amino}-6-(1-methylpyrazol-4-yl)(3-pyridyl))carbonylamino]-2-methylpropanoate]", "pIC50": 6.85}
{"molecule": "COC(=O)[C@H](CN)NC(=O)c1ccc(-c2ccccc2C#N)nc1NCCc1cccc(F)c1", "note": "[methyl (2S)-3-amino-2-[(6-(2-cyanophenyl)-2-{[2-(3-fluorophenyl)ethyl]amino}(3-pyridyl))carbonylamino]propanoate]", "pIC50": 5.63}
{"molecule": "COC(=O)N1CCC[C@H](CNC(=O)c2ccc(-c3ccccc3C#N)nc2NCCc2cccc(F)c2)C1", "note": "[methyl (3R)-3-{[(6-(2-cyanophenyl)-2-{[2-(3-fluorophenyl)ethyl]amino}(3-pyridyl))carbonylamino]methyl}piperidinecarboxylate]", "pIC50": 6.14}
{"molecule": "CC(C)(C)OC(=O)N1CCOC(CNC(=O)c2ccc(-c3ccccc3)nc2NCCc2ccccn2)C1", "note": "(stereo not shown) [tert-butyl 2-[({6-phenyl-2-[(2-(2-pyridyl)ethyl)amino]-3-pyridyl}carbonylamino)methyl]morpholine-4-carboxylate]", "pIC50": 4.19}
{"molecule": "Cc1cc(C(=O)NC[C@H]2CCCN2C(=O)OC(C)(C)C)c(NCCc2cccc(F)c2)nc1-c1cnn(C)c1", "note": "[tert-butyl (2R)-2-{[(2-{[2-(3-fluorophenyl)ethyl]amino}-5-methyl-6-(1-methylpyrazol-4-yl)(3-pyridyl))carbonylamino]methyl}pyrrolidinecarboxylate]", "pIC50": 5.43}
{"molecule": "Cn1cc(-c2ccc(C(=O)NC[C@H]3CCCN3C(=O)OC(C)(C)C)c(NCCc3cccc(F)c3)n2)cn1", "note": "[tert-butyl (2R)-2-{[(2-{[2-(3-fluorophenyl)ethyl]amino}-6-(1-methylpyrazol-4-yl)(3-pyridyl))carbonylamino]methyl}pyrrolidinecarboxylate]", "pIC50": 5.33}
{"molecule": "CC(C)(C)OC(=O)N1CC[C@@H]1CNC(=O)c1ccc(-c2cn[nH]c2)nc1NCCc1cccc(F)c1", "note": "[tert-butyl (2R)-2-{[(2-{[2-(3-fluorophenyl)ethyl]amino}-6-pyrazol-4-yl(3-pyridyl))carbonylamino]methyl}azetidinecarboxylate]", "pIC50": 6.28}
{"molecule": "CC(C)(C)OC(=O)N1CCC[C@@H]1CNC(=O)c1ccc(-c2cn[nH]c2)nc1NCCc1cccc(F)c1", "note": "[tert-butyl (2R)-2-{[(2-{[2-(3-fluorophenyl)ethyl]amino}-6-pyrazol-4-yl(3-pyridyl))carbonylamino]methyl}pyrrolidinecarboxylate]", "pIC50": 5.50}
{"molecule": "Cn1cc(-c2nc(NCCc3cccc(F)c3)c(C(=O)NC[C@H]3CCCN3C(=O)OC(C)(C)C)cc2Cl)cn1", "note": "[tert-butyl (2R)-2-{[(5-chloro-2-{[2-(3-fluorophenyl)ethyl]amino}-6-(1-methylpyrazol-4-yl)(3-pyridyl))carbonylamino]methyl}pyrrolidinecarboxylate]", "pIC50": 5.80}
{"molecule": "Cn1cc(-c2nc(NCCc3cccc(F)c3)c(C(=O)NC[C@H]3CCCN3C(=O)OC(C)(C)C)cc2C#N)cn1", "note": "[tert-butyl (2R)-2-{[(5-cyano-2-{[2-(3-fluorophenyl)ethyl]amino}-6-(1-methylpyrazol-4-yl)(3-pyridyl))carbonylamino]methyl}pyrrolidinecarboxylate]", "pIC50": 5.60}
{"molecule": "CC(C)(C)OC(=O)N1CCC[C@@H]1CNC(=O)c1cc(C#N)c(-c2cn[nH]c2)nc1NCCc1cccc(F)c1", "note": "[tert-butyl (2R)-2-{[(5-cyano-2-{[2-(3-fluorophenyl)ethyl]amino}-6-pyrazol-4-yl(3-pyridyl))carbonylamino]methyl}pyrrolidinecarboxylate]", "pIC50": 5.19}
{"molecule": "Cn1cc(-c2nc(NCCc3cccc(F)c3)c(C(=O)NC[C@H]3CCN3C(=O)OC(C)(C)C)cc2F)cn1", "note": "[tert-butyl (2R)-2-{[(5-fluoro-2-{[2-(3-fluorophenyl)ethyl]amino}-6-(1-methylpyrazol-4-yl)(3-pyridyl))carbonylamino]methyl}azetidinecarboxylate]", "pIC50": 6.28}
{"molecule": "Cn1cc(-c2nc(NCCc3cccc(F)c3)c(C(=O)NC[C@H]3CCCN3C(=O)OC(C)(C)C)cc2F)cn1", "note": "[tert-butyl (2R)-2-{[(5-fluoro-2-{[2-(3-fluorophenyl)ethyl]amino}-6-(1-methylpyrazol-4-yl)(3-pyridyl))carbonylamino]methyl}pyrrolidinecarboxylate]", "pIC50": 5.84}
{"molecule": "CC(C)(C)OC(=O)N1CC[C@@H]1CNC(=O)c1cc(F)c(-c2cn[nH]c2)nc1NCCc1cccc(F)c1", "note": "[tert-butyl (2R)-2-{[(5-fluoro-2-{[2-(3-fluorophenyl)ethyl]amino}-6-pyrazol-4-yl(3-pyridyl))carbonylamino]methyl}azetidinecarboxylate]", "pIC50": 6.54}
{"molecule": "CC(C)(C)OC(=O)N1CCC[C@@H]1CNC(=O)c1ccc(-c2ccccc2C#N)nc1NCCc1cccc(F)c1", "note": "[tert-butyl (2R)-2-{[(6-(2-cyanophenyl)-2-{[2-(3-fluorophenyl)ethyl]amino}(3-pyridyl))carbonylamino]methyl}pyrrolidinecarboxylate]", "pIC50": 5.71}
{"molecule": "CC(C)(C)OC(=O)N1CCC[C@@H]1CNC(=O)c1cc(F)c(-c2ccccc2C#N)nc1NCCc1cccc(F)c1", "note": "[tert-butyl (2R)-2-{[(6-(2-cyanophenyl)-5-fluoro-2-{[2-(3-fluorophenyl)ethyl]amino}(3-pyridyl))carbonylamino]methyl}pyrrolidinecarboxylate]", "pIC50": 5.04}
{"molecule": "CC(C)CCNc1nc(-c2ccccc2)ccc1C(=O)NCc1cccnc1", "note": "[{2-[3-methylbutyl)amino]-6-phenyl(3-pyridyl)}-N-(3-pyridylmethyl)carboxamide]", "pIC50": 5.60}
{"molecule": "O=C(NCc1cccnc1)c1ccc(-c2ccccc2)nc1NCCC1OCCO1", "note": "[{2-[(2-(1,3-dioxolan-2-yl)ethyl)amino]-6-phenyl(3-pyridyl)}-N-(3-pyridylmethyl)carboxamide]", "pIC50": 5.15}
{"molecule": "O=C(NCc1cccnc1)c1ccc(-c2ccccc2)nc1NCCc1ccco1", "note": "[{2-[(2-(2-furyl)ethyl)amino]-6-phenyl(3-pyridyl)}-N-(3-pyridylmethyl)carboxamide]", "pIC50": 6.53}
{"molecule": "O=C(NCc1cccnc1)c1ccc(-c2nccs2)nc1NCCc1ccccn1", "note": "[{2-[(2-(2-pyridyl)ethyl)amino]-6-(1,3-thiazol-2-yl)(3-pyridyl)}-N-(3-pyridylmethyl)carboxamide]", "pIC50": 5.06}
{"molecule": "O=C(NCc1cccnc1)c1ccc(-c2cccs2)nc1NCCc1ccccn1", "note": "[{2-[(2-(2-pyridyl)ethyl)amino]-6-(2-thienyl)(3-pyridyl)}-N-(3-pyridylmethyl)carboxamide]", "pIC50": 6.10}
{"molecule": "C=Cc1ccccc1-c1ccc(C(=O)NCc2cccnc2)c(NCCc2ccccn2)n1", "note": "[{2-[(2-(2-pyridyl)ethyl)amino]-6-(2-vinylphenyl)(3-pyridyl)}-N-(3-pyridylmethyl)carboxamide]", "pIC50": 5.27}
{"molecule": "O=C(NCc1cccnc1)c1ccc(-c2ccsc2)nc1NCCc1ccccn1", "note": "[{2-[(2-(2-pyridyl)ethyl)amino]-6-(3-thienyl)(3-pyridyl)}-N-(3-pyridylmethyl)carboxamide]", "pIC50": 6.38}
{"molecule": "O=C(NCc1cccnc1)c1ccc(-c2cccc(C(F)(F)F)c2)nc1NCCc1ccccn1", "note": "[{2-[(2-(2-pyridyl)ethyl)amino]-6-[3-(trifluoromethyl)phenyl](3-pyridyl)}-N-(3-pyridylmethyl)carboxamide]", "pIC50": 5.23}
{"molecule": "O=C(NCc1cccnc1)c1ccc(-c2ccc(C(F)(F)F)cc2)nc1NCCc1ccccn1", "note": "[{2-[(2-(2-pyridyl)ethyl)amino]-6-[4-(trifluoromethyl)phenyl](3-pyridyl)}-N-(3-pyridylmethyl)carboxamide]", "pIC50": 5.64}
{"molecule": "O=C(NCc1cccnc1)c1ccc(-c2ccccc2)nc1NCCC1=CCCCC1", "note": "[{2-[(2-cyclohex-1-enylethyl)amino]-6-phenyl(3-pyridyl)}-N-(3-pyridylmethyl)carboxamide]", "pIC50": 6.27}
